The text below walks through data of patent US20090180969A1, “PHARMACEUTICAL FORMULATION COMPRISING AN ANTICHOLINERGIC DRUG” (Chiesi Farmaceutici S.p.A., priority 2008, published 2009).

For series [1], the system named is acetylcholine (Ach)-induced increase in Penh (airway reactivity). Description: Bronchodilation activity: Ach-induced increase in Penh, barometric plethysmography. It is filed as in vivo, guinea pig. The note with it: for bronchoprotective effect: 24 hours. The protocol: Airway reactivity is measured using barometric plethysmography (Buxco, USA). Male guinea pigs (500-600 g) are individually placed in plexiglass chambers. After an acclimatisation period, animals are exposed to nebulised saline for 1 minute to obtain airway baseline reading. This is followed by a 1 minute challenge with nebulised acetylcholine (Ach)-2.5 mg/mL. After 60 minutes, 5 minute nebulisation of vehicle or the compound 1′ in the range 2.5-250 μM are applied and Ach challenge is then repeated after 2, 5, 24, 48 and 72 hours (h). Recording of pressure fluctuations in the chambers are taken for 5 minutes after each nebulisation and analysed to calculate Enhanced Pause (Penh). Airway reactivity is expressed as percentage increase in Penh compared with Penh values from the nebulisation of vehicle. […] After inhalation of […] of compound 1′, effect persists unchanged up to 48 hours (83.0±16.1%), while at 72 hours a residual activity of 34.8±20.9% is present.

A short description of series [2]: Estimation of lung levels after nebulisation. It is filed as in vivo. The note with it: guinea pig, inhaled, nebulisation with submaximal bronchodilator activity, 2 hours after treatment, read-out: retained dose in the target organ (lung).

Take `O=C(C[N+]12CCC(CC1)[C@@H](OC(=O)N(Cc1cc(F)c(F)c(F)c1)c1cccc(F)c1)C2)c1cccs1.[Cl-]` [compound 1′, (3R)-3-[[[(3-fluorophenyl)[(3,4,5-trifluorophenyl)methyl]amino]carbonyl]oxy]-1-[2-oxo-2-(2-thienyl)ethyl]-1-azoniabicyclo[2.2.2]octane chloride]: the bronchoprotective effect is 63.7±15.1% in series [1] (25 μM inhalation) and 87.1±8.7% in series [1] (50 μM inhalation). Besides, in series [1] (50 μM inhalation, 48 h), the inhibition was 49.2±23.2%. Also, in series [1] (50 μM nebulised, 2 hours after end of nebulisation), the “maximal effect, inhibition of Ach-induced increase in Penh” value is 99.6±0.4. For the same compound, the “effect (inhibition of Ach-induced increase in Penh)” value in series [1] (250 μM inhalation, 48 hours) is listed as 83.0±16.1%. The compound further came in with a residual activity in series [1] (250 μM inhalation, 72 hours) of 34.8±20.9%. The same compound registered a duration of effect in series [1] (inhalation of lower concentrations (below 25 μM)) of no more than 5 h. Moreover, the concentration at 2 h in series [2] is roughly 50 ng/g.

As a reminder, the inhibition is the percentage by which the read-out fell short of the control. A lower inhibition goes with little suppression.
